Measurements as given in patent US7511074B2, “Tetrafluorobenzyl derivatives and pharmaceutical composition for preventing and treating acute and chronic neurodegenerative diseases in central nervous system containing the same” (AmKor Pharma, Inc., priority 2002, dated 2009).

Tested on: Mouse cortical cell cultures
Experiment: SNP (sodium nitroprusside) cytotoxicity in mixed cortical cell cultures (LDH assay)
Assay type: cell-based
Settings: continuous 5 μM SNP; LDH 24 hr later
Procedure: (§1) Mouse cortical cell cultures (DIV 12-14) were exposed to continuously 5 μM sodium nitroprusside (SNP), alone (●) or with inclusion of 0.1-10 mM aspirin (◯), 1-100 μM trolox (▾), or 0.1-10 μM 2-Hydroxy-TTBA (∇). Neuronal death was analyzed 24 hr later by measuring levels of LDH released into the bathing medium, mean ±SEM (n=9-12 culture wells per condition), scaled to mean LDH efflux value 24 hr after sham wash (=0) and continuous exposure to 500 μM NMDA (=100). *, Significant difference from the vehicle control, p<0.05 using ANOVA and Student-Neuman-Keuls' test.
(§2) For mixed neuron-glia culture, mouse cerebral cortices were removed from brains of the 14-16 day-old-fetal mice (E14-16), gently triturated and plated on 24 well plates (2×10^5 cells/plate) precoated with 100 μg/ml poly-D-lysine and 4 μg/ml laminine. Cultures were maintained at 37° C. in a humidified 5% CO2 atmosphere. Plating media consist of Eagles minimal essential media (MEM, Earles salts, supplied glutamine-free) supplemented with 5% horse serum, 5% fetal bovine serum, 26.5 mM bicarbonate, 2 mM glutamine, and 21 mM glucose.
(§3) After 7-8 days in vitro (DIV 7-8), 10 μM cytosine arabinofuranoside (Ara-C) was included to halt overgrowth of glia. The drug treatment was carried on DIV 12-15 cortical cell culture. Overall neuronal cell injury was assessed by measuring amount of lactate dehydrogenase (LDH) released into the bathing medium 24 hr after neurotoxic insults as previously described [Koh and Choi, J Neurosci Methods 20:83-90, 1987].
Mixed cortical cell cultures were continuously exposed to 5 μM SNP, a nitric oxide (NO) donor, alone or with inclusion of 0.1-10 μM 2-Hydroxy-TTBA, 1-10 μM trolox or 100-10,000 μM aspirin. Neuronal cell death was analyzed 24 hr later by LDH assay. *, Significant difference from the vehicle control (SNP), p<0.05 using ANOVA and Student-Neuman-Keuls' test.

Row | SMILES | effect on SNP toxicity
1 | CC(=O)Oc1ccccc1C(=O)O [Aspirin, aspirin, reference compound] | did not reduce SNP cytotoxicity
2 | Cc1c(C)c2c(c(C)c1O)CCC(C)(C(=O)O)O2 (stereo not drawn) [trolox, reference compound] | completely blocked

Tested on: not given
Experiment: not given
Settings: not given

Row | melting point | SMILES
3 | 121 °C | O=C(O)c1cc(NCc2c(F)c(F)c(C(F)(F)F)c(F)c2F)ccc1[N+](=O)[O-] [Synthesis Example 2, 2-nitro-5-(2,3,5,6-tetrafluoro-4-trifluoromethylbenzylamino)benzoic acid]
4 | 58 °C | O=C(O)c1cc(NCc2c(F)c(F)c(C(F)(F)F)c(F)c2F)ccc1Cl [Synthesis Example 3, 2-chloro-5-(2,3,5,6-tetrafluoro-4-trifluoromethylbenzylamino)benzoic acid]
5 | 70 °C | O=C(O)c1cc(NCc2c(F)c(F)c(C(F)(F)F)c(F)c2F)ccc1Br [Synthesis Example 4, 2-bromo-5-(2,3,5,6-tetrafluoro-4-trifluoromethylbenzylamino)benzoic acid]
6 | 212 °C | Cc1c(F)c(F)c(CNc2ccc(O)c(C(=O)O)c2)c(F)c1F [Synthesis Example 5, 2-hydroxy-5-(2,3,5,6-tetrafluoro-4-methylbenzylamino)benzoic acid]
7 | 84 °C | Cc1ccc(NCc2c(F)c(F)c(C(F)(F)F)c(F)c2F)cc1C(=O)O [Synthesis Example 6, 2-methyl-5-(2,3,5,6-tetrafluoro-4-trifluoromethylbenzylamino)benzoic acid]
8 | 94 °C | COc1ccc(NCc2c(F)c(F)c(C(F)(F)F)c(F)c2F)cc1C(=O)O [Synthesis Example 7, 2-methoxy-5-(2,3,5,6-tetrafluoro-4-trifluoromethylbenzylamino)benzoic acid]
9 | 38 °C | O=C(O)c1cc(NCc2c(F)c(F)c(C(F)(F)F)c(F)c2F)ccc1OC(F)(F)F [Synthesis Example 8, 5-(2,3,5,6-tetrafluoro-4-trifluoromethylbenzylamino)-2-trifluoromethoxybenzoic acid]
10 | 126 to 128 °C | O=[N+]([O-])c1cc(NCc2c(F)c(F)c(C(F)(F)F)c(F)c2F)ccc1O [Synthesis Example 9, 2-nitro-4-(2,3,5,6-tetrafluoro-4-trifluoromethylbenzylamino)phenol]
11 | 127 °C | COC(=O)c1cc(NCc2c(F)c(F)c(C(F)(F)F)c(F)c2F)ccc1O [Synthesis Example 13, methyl 2-hydroxy-5-(2,3,5,6-tetrafluoro-4-trifluoromethylbenzylamino)benzoate]

Tested on: Mouse cortical cell cultures
Experiment: FeCl2-induced free radical neurotoxicity in mixed cortical cell cultures (LDH assay)
Assay type: cell-based
Settings: continuous 50 μM FeCl2; 1-30 μM; LDH 24 hr later
Procedure: as §1, with “continuously to 50” for “continuously 5”, “μM Fe^2+,” for “μM sodium nitroprusside (SNP),”, “alone” for “alone (●)”, “of 0.1-100” for “of 0.1-10 mM aspirin (◯), 1-100 μM trolox (▾), or 0.1-10”, “2-Hydroxy-TTBA (●) or trolox (◯), a membrane-permeable form of vitamin E).” for “2-Hydroxy-TTBA (∇).”
Mouse cortical cell cultures (DIV 12-14) were exposed to continuously to 50 μM Fe^2+, alone (♦) or with inclusion of 1-30 μM 2-Hydroxy-TTS (●), 2-Hydroxy-TTA (◯), 2-Chloro-TTP (▾), 2-Ethan-TTBA (∇), 2-Propan-TTBA (▪), or 2-Cyclohexan-TTBA (□). Neuronal death was analyzed 24 hr later by measuring levels of LDH released into the bathing medium, mean ±SEM (n=9-12 culture wells per condition), scaled to mean LDH efflux value 24 hr after sham wash (=0) and continuous exposure to 500 μM NMDA (=100). *, Significant difference from the vehicle control, p<0.05 using ANOVA and Student-Neuman-Keuls' test.
as §2, §3
Mixed cortical cell cultures (DIV 13-15) were continuously exposed to 50 μM FeCl2, which produces hydroxyl radical via a Fenton reaction, alone or with inclusion of 2-Hydroxy-TTBA, 2-Hydroxy-TTA, 2-Hydroxy-TTS, 2-Chloro-TTP, 2-Ethan-TTBA, 2-Propan-TTBA, 2-Cyclohexan-TTBA or trolox (a vitamin E analogue) at indicated doses. Neuronal cell death was analyzed 24 hr later by LDH assay as described above. *, Significant difference from the vehicle control (FeCl2), p<0.05 using ANOVA and Student-Neuman-Keuls' test.

Row | SMILES | neuroprotective effect compared with trolox against FeCl2-induced free radical neurotoxicity
12 | Oc1ccc(NCc2c(F)c(F)c(C(F)(F)F)c(F)c2F)cc1Cl [2-Chloro-TTP, 2-chloro-4-(2,3,5,6-tetrafluoro-4-trifluoromethylbenzylamino)phenol] | much stronger neuroprotective effects than trolox
13 | O=C(O)c1cc(NCc2c(F)c(F)c(C(F)(F)F)c(F)c2F)ccc1OC(=O)C1CCCCC1 [2-Cyclohexan-TTBA, 2-cyclohexanecarbonyloxy-5-(2,3,5,6-tetrafluoro-4-trifluoromethylbenzylamino)benzoic acid] | much stronger neuroprotective effects than trolox
14 | CC(=O)Oc1ccc(NCc2c(F)c(F)c(C(F)(F)F)c(F)c2F)cc1C(=O)O [2-Ethan-TTBA, 2-ethanoyloxy-5-(2,3,5,6-tetrafluoro-4-trifluoromethylbenzylamino)benzoic acid] | much stronger neuroprotective effects than trolox
15 | NC(=O)c1cc(NCc2c(F)c(F)c(C(F)(F)F)c(F)c2F)ccc1O [2-Hydroxy-TTA, 2-hydroxy-5-(2,3,5,6-tetrafluoro-4-trifluoromethylbenzylamino)benzamide] | much stronger neuroprotective effects than trolox
16 | O=S(=O)(O)c1cc(NCc2c(F)c(F)c(C(F)(F)F)c(F)c2F)ccc1O [2-Hydroxy-TTS, 2-hydroxy-5-(2,3,5,6-tetrafluoro-4-trifluoromethylbenzylamino)benzene sulfonic acid] | much stronger neuroprotective effects than trolox
17 | CCC(=O)Oc1ccc(NCc2c(F)c(F)c(C(F)(F)F)c(F)c2F)cc1C(=O)O [2-Propan-TTBA, 2-propanoyloxy-5-(2,3,5,6-tetrafluoro-4-trifluoromethylbenzylamino)benzoic acid] | much stronger neuroprotective effects than trolox

Same assay, conditions: continuous 50 μM FeCl2; LDH 24 hr later

Row | SMILES | prevention of FeCl2-induced free radical neurotoxicity
18 | Cc1c(C)c2c(c(C)c1O)CCC(C)(C(=O)O)O2 (stereo not drawn) [trolox, reference compound] | prevented FeCl2-induced free radical neurotoxicity in a dose-dependent manner
